“Also recorded” adds a separate entry of the source.
Experiments:
Assay type in all cases: cell-based
[1] = test system: human antigen presenting cells; experiment: Stimulation of human antigen presenting cells with free adjuvants, flow cytometry; conditions: peripheral blood APCs, 10-fold serial dilutions, 18 hours, 37° C.
Method: Peripheral blood antigen presenting cells (APCs) were stimulated with 10-fold serial dilutions of R848, Compound 2 or a control TLR agonist at 37° C. After 18 hours, cells were analyzed via flow cytometry. Data are presented as median fluorescence intensity of each indicated marker; n=3.
To determine if adjuvant functionalization impacted the capacity of Compound 2 or Compound 1 to elicit immune activation, human antigen presenting cells were stimulated with 10-fold serial dilutions of R848, Compound 2, Compound 1 or a control TLR agonist, CL307, for 18 hours prior to analysis via flow cytometry.

murine TLR7 = biological target: T1, murine TLR7 (Mus musculus, UniProt P58681); experiment: HEK293 TLR reporter (secreted embryonic alkaline phosphatase) assay; conditions: 2-fold serial dilutions, 12 hours at 37° C.
T1 construct: expressed in transfected cells; host or cells: HEK293
T1 sequence (P58681 27-1050): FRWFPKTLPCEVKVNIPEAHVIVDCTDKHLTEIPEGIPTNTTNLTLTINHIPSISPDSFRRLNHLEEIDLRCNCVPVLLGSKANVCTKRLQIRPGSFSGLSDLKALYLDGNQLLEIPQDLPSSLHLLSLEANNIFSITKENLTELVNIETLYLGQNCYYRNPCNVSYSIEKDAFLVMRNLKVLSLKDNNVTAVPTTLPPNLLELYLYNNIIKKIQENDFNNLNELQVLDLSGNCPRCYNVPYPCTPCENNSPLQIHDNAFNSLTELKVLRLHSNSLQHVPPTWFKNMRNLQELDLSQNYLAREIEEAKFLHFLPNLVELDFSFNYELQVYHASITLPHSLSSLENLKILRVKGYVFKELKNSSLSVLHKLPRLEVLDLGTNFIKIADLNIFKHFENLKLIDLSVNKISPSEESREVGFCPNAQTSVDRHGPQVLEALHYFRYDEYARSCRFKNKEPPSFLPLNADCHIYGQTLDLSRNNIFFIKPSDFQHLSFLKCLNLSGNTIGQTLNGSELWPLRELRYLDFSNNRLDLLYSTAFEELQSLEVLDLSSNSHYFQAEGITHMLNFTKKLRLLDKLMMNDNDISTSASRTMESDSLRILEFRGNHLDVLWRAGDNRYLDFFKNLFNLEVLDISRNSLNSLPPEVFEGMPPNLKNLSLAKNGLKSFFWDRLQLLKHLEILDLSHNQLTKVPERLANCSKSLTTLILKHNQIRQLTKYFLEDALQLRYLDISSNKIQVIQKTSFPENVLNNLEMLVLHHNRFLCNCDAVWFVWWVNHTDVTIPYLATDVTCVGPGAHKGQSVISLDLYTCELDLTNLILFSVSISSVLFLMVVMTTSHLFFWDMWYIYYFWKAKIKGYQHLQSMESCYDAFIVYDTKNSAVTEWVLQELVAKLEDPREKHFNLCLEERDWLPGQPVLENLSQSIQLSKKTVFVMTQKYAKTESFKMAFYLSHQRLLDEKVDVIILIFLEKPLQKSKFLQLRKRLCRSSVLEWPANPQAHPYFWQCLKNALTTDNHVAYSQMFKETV
Method: (§1) HEK293 cells were co-transfected with human TLR7 or TLR8 (top two panels) or murine TLR7 (bottom panel) and an inducible secreted embryonic alkaline phosphatase reporter gene under the control of the IFN-β minimal promoter fused to NF-κB and AP-1 binding sites. Cells were subsequently incubated with 2-fold serial dilutions of the indicated adjuvant for 12 hours at 37° C. Activity was measured by spectrophotometry (OD 650 nm) following addition of alkaline phosphatase substrate.
(§2) Next, the capacity of each functionalized TLR agonist to activate human TLR7 or TLR8 was directly assayed. HEK293 cells were co-transfected with human TLR7 or TLR8 or murine TLR7 and an inducible secreted embryonic alkaline phosphatase reporter gene under the control of the IFN-β minimal promoter fused to NF-κB and AP-1 binding sites. Cells were subsequently incubated with 2-fold serial dilutions of each the indicated adjuvants for 12 hours at 37 C in the presence of an alkaline phosphatase substrate. Activity was measured by spectrophotometry (OD 650 nm).

human TLR8 = biological target: T2, human TLR8 (Homo sapiens, UniProt Q9NR97); experiment: as above; conditions: 2-fold serial dilutions, 12 hours at 37° C.
T2 construct: expressed in transfected cells; host or cells: HEK293
T2 sequence (Q9NR97 27-1041): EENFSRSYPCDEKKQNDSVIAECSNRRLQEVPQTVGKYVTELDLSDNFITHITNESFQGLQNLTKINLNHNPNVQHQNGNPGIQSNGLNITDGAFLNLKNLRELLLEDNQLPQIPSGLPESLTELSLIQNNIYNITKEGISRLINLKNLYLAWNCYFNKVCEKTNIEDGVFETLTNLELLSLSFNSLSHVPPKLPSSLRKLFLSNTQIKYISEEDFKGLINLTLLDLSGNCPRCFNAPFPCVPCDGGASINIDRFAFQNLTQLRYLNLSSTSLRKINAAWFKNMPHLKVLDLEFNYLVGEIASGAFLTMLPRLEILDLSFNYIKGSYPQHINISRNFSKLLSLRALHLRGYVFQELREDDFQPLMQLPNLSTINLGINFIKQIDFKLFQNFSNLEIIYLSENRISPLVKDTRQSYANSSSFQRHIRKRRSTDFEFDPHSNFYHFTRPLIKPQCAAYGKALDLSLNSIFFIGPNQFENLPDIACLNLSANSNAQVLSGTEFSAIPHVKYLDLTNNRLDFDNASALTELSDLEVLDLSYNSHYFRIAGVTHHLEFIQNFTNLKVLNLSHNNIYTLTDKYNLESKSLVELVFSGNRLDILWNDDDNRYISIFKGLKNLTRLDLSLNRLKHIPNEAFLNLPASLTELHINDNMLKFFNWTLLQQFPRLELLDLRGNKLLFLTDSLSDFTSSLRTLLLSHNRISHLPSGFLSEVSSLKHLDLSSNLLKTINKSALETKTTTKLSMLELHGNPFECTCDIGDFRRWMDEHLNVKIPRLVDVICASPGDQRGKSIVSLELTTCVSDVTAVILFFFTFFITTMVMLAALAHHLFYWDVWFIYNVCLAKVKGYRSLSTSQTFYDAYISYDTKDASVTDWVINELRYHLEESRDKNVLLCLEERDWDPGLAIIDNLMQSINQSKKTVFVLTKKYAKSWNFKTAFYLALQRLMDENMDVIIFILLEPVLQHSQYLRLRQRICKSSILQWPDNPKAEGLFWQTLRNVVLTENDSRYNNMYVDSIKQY
Method: as §1, §2

human TLR7 = biological target: T3, human TLR7 (Homo sapiens, UniProt Q9NYK1); experiment: as above; conditions: 2-fold serial dilutions, 12 hours at 37° C.
T3 construct: expressed in transfected cells; host or cells: HEK293
T3 sequence (Q9NYK1 27-1049): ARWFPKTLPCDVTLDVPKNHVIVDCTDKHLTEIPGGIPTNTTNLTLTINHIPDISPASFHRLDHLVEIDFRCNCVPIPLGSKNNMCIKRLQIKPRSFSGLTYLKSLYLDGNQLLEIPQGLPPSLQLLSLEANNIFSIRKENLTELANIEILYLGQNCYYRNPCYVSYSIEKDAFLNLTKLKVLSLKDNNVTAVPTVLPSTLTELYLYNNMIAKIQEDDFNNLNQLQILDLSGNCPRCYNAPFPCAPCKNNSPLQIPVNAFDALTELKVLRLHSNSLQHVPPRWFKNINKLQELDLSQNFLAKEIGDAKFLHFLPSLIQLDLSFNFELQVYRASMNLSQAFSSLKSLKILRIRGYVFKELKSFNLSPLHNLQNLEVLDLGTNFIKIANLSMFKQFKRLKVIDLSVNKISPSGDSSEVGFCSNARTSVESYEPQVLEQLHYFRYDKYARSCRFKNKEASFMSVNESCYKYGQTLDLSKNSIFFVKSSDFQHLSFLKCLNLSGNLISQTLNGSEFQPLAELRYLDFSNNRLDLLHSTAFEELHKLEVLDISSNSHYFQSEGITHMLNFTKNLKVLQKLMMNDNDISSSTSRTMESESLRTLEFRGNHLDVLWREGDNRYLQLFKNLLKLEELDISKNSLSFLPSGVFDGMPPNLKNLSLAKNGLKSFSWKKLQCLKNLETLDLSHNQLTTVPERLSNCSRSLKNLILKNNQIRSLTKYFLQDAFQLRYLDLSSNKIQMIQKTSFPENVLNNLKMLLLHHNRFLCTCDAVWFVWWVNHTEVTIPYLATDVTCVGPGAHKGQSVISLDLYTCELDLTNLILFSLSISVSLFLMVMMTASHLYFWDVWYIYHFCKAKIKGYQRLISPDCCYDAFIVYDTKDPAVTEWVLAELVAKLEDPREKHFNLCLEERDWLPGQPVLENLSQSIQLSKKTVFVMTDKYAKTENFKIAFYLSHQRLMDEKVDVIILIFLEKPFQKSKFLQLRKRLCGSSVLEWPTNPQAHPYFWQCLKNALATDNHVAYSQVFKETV
Method: as §1, §2

[2] = test system: human APCs (myeloid cells); experiment: APC-tumor co-culture / myeloid cell stimulation, surface markers by flow cytometry; conditions: 18 hours of stimulation; compared with the corresponding unconjugated antibody unless the value names another comparator
Excerpt: (§3) Human antigen presenting cells (APCs) were negatively selected from human peripheral blood mononuclear cells obtained from healthy blood donors (Stanford Blood Center) by density gradient centrifugation using a RosetteSep Human Monocyte Enrichment Cocktail (Stem Cell Technologies) containing monoclonal antibodies against CD2, CD3, CD8, CD19, CD56, CD66b and CD235a. Immature APCs were subsequently purified to >97% purity via negative selection using an EasySep Human Monocyte Enrichment Kit without CD16 depletion containing monoclonal antibodies against CD2, CD3, CD19, CD20, CD56, CD66b, CD123 and CD235a.
Tumor cells were resuspended in PBS with 0.1% fetal bovine serum (FBS) at 1 to 10×10^6 cells/mL. Cells were subsequently incubated with 2 μM CFSE to yield a final concentration of 1 μM. The reaction was ended after 2 minutes via the addition of 10 mL complete medium with 10% FBS and washed once with complete medium. Cells were either fixed in 2% paraformaldehyde and washed three times with PBS or left unfixed prior to freezing the cells in 10% DMSO, 20% FBS and 70% medium.
(§4) 2×10^5 APCs were incubated with or without 6.5×10^5 autologous or allogeneic CFSE-labeled tumor cells in 96-well plates (Corning) containing IMDM medium (Gibco) supplemented with 10% fetal bovine serum, 100 U/mL penicillin, 100 μg/mL streptomycin, 2 mM L-glutamine, sodium pyruvate, non-essential amino acids, 50 μM 2-ME and, where indicated, various concentrations of anti-tumor antibody and the indicated adjuvants. Cells and cell-free supernatants were analyzed after 18 hours via flow cytometry.
as §3, with “[…]” for “CD2, CD3, CD8, CD19, CD56, CD66b”, “[…].” for “CD235a.”, “CD14, CD16, CD40, CD86, CD123,” for “CD2, CD3, CD19, CD20, CD56, CD66b, CD123”
as §4, with “antibody.” for “anti-tumor antibody and the indicated adjuvants.”
(§5) 2×10^5 APCs were incubated with or without 6.5×10^5 allogeneic CFSE-labeled tumor cells in 96-well plates (Corning) containing IMDM medium (Gibco) supplemented with 10% fetal bovine serum, 100 U/mL penicillin, 100 μg/mL streptomycin, 2 mM L-glutamine, sodium pyruvate, non-essential amino acids and, where indicated, various concentrations of unconjugated CD20 antibody, and immunoconjugates of the invention were prepared according to the examples above. Cells and cell-free supernatants were analyzed after 18 hours via flow cytometry or ELISA.

[3] = test system: human APCs (myeloid cells); experiment: Cytokine secretion from human APCs / myeloid cells (cell free supernatants); conditions: 36 hours of stimulation; compared to equimolar unconjugated antibody
Method: After 18 hours, cell free supernatants were analyzed for cytokine secretion via cytokine bead arrays; n=3. P-values≤0.05 depicted by *, P-values≤0.01 depicted by **, P-values≤0.001 depicted by ***, P-values≤0.0001 depicted by ****.
as §4, with “Cells and cell-free supernatants were analyzed after 18 hours via flow cytometry.” left out
While the expression of T cell stimulatory molecules such as CD40, CD86 and HLA-DR is necessary for effective T cell activation, APCs also influence the nature of the ensuing immune response through the secretion of cytokines. Therefore, the capacity of immunoconjugates to elicit cytokine secretion in human APCs following stimulation was investigated as described above.
The capacity of these immunoconjugates to elicit cytokine secretion in human APCs following stimulation was investigated as described in Example 3 above.
as §5, with “Cells and cell-free supernatants were analyzed after 18 hours via flow cytometry or ELISA.” left out

| Compound | myeloid cell activation (median fluorescence intensity of activation markers) [1] | murine TLR7 activation (OD 650 nm) (murine TLR7) | human TLR8 activation (OD 650 nm) (human TLR8) | human TLR7 activation (OD 650 nm) (human TLR7) | CD16 downregulation on myeloid cells [2] | CD40 upregulation on myeloid cells [2] | CD86 upregulation on myeloid cells [2] | CD123 upregulation on myeloid cells [2] | IL-1β secretion from myeloid cells [3] | TNFα secretion from myeloid cells [3] |
| --- | --- | --- | --- | --- | --- | --- | --- | --- | --- | --- |
| CCCCc1nc2c(N)nc3ccccc3c2n1CCCCN1C(=O)C=CC1=O [Compound 2] | performed similarly to R848; also recorded: potent inducer of myeloid cell activation | activated murine TLR7 | specific for TLR7 activity | specific for TLR7 activity |  |  |  |  |  |  |
| Rituximab-Pam3CSK4 Boltbody |  |  |  |  | superior | superior | superior | superior | superior | superior |
| Rituximab-Pam2CSK4 Boltbody |  |  |  |  | superior | superior | superior |  | superior | superior |
